Biological target: T1, Human M4 (Homo sapiens, UniProt P08173)
T1 sequence (P08173 1-479): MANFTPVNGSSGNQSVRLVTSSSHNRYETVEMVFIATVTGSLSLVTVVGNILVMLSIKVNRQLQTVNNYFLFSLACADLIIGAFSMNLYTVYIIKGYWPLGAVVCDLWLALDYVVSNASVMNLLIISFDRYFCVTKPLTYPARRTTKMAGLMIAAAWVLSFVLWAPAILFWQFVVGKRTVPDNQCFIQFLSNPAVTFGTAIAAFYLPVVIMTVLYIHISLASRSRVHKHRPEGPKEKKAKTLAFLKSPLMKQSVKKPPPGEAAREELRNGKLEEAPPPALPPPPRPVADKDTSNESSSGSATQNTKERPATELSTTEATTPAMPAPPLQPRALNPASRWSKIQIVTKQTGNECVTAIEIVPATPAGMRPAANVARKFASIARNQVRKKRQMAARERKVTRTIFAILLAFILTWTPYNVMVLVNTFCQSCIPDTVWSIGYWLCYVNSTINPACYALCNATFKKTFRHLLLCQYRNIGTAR
Test: M4 cell-based functional assay (calcium mobilization)
Design: expressed in transfected cells
Settings: for Emax at 30 µM: % ACh maximum at 30 μM; for EC50: CHO-K1 hM4-Gqi5 cells, calcium flux, increase in EC20 acetylcholine response
Protocol: Human (h) and rat (r) M4 CDNAs, along with the chimeric G protein Gqi5, were transfected into Chinese hamster ovary (CHO-K1) cells purchased from the American Type Culture Collection using Lipofectamine2000. The transfected cells were subjected to selection antibiotic treatment to generate stable cell lines; G418 sulfate (1 mg/ml) for selecting M4 expressing cells and Hygromycin B (500 μg/mL) for selecting Gqi5 expressing cells. The resulting polyclones were further screened to obtain monoclones of hM4-Gqi5 and rM4-Gqi5 for compound screening assay. Stable monoclone cells were maintained in Ham's F-12 medium containing 10% heat-inactivated fetal bovine serum (FBS), 1× Antibiotic/Antimycotic, 20 mM HEPES, 500 μg/mL G418 sulfate, and 200 μg/mL Hygromycin B in 37° C. humidified incubators in the presence of 5% CO2.
The high throughput assay was employed to measure receptor-induced mobilization of intracellular calcium to determine compound activity. Test compound was added to cells expressing the muscarinic receptors that were loaded with calcium sensitive fluorescent dye. After a ˜2.5 minute incubation period, a submaximal (EC20) concentration of acetylcholine was added, and the response measured. This kinetic assay allows for simultaneous screening and potency determination of multiple pharmacological modes of action including agonist and potentiator activity. CHO-K1 cells stably expressing muscarinic receptors were plated in growth medium lacking G418 and hygromycin at 15,000 cells/20 μL/well in Greiner 384-well black-walled, tissue culture (TC)-treated, clear-bottom plates (Greiner Bio-One). Cells were incubated overnight at 37° C. and 5% CO2. The next day, calcium assay buffer (Hank's balanced salt solution (HBSS), 20 mM HEPES, 2.5 mM Probenecid, 4.16 mM sodium bicarbonate (Sigma-Aldrich, St. Louis, MO)) was prepared to dilute compounds, agonists, and Fluo-4-acetomethoxyester (Fluo-4-AM), fluorescent calcium indicator dye. Compounds were serially diluted 1:3 into 10 point concentration response curves in DMSO using the Bravo Liquid Handler (Agilent, Santa Clara, CA), transferred to a 384 well daughter plates using an Echo acoustic liquid handler (Beckman Coulter, Indianapolis, Indiana), and diluted in assay Buffer to a 2× final concentration. The agonist plates were prepared using acetylcholine (ACh, Sigma-Aldrich, St. Louis, MO) concentrations for the EC20 and ECMAX responses by diluting in assay buffer to a 5× final concentration. The 2× dye solution (2.3 μM) was prepared by mixing a 2.3 mM Fluo-4-AM stock in DMSO with 10% (w/v) pluronic acid F-127 in a 1:1 ratio in assay buffer. Using a microplate washer (BioTek, Winooski, VT), cells were washed with assay buffer for 3 times to remove medium. After the final wash, 20 μL of assay buffer remained in the cell plates. Immediately, 20 μL of the 2× dye solution (final 1.15 μM) was added to each well of the cell plate using a Multidrop Combi dispenser (Thermo Fisher, Waltham, MA). After cells were incubated with the dye solutions for 45 min at 37° C. in the presence of 5% CO2, the dye solutions were removed and replaced with assay buffer using a microplate washer, leaving 20 μL of assay buffer in the cell plate.
The prepared compound, agonist, and cell plates were placed inside the Functional Drug Screening System uCell (FDSS uCell, Hamamatsu, Japan) to measure the calcium flux.
The triple add protocol was used to measure Ca kinetics; Compound, ACh for EC2O, and ACh for EC80 adds in an order. Briefly, after establishment of a fluorescence baseline for 2 seconds (excitation, 480 nm; emission, 530 nm), first add occurred by adding 20 μL of test compound to the cells, and the response was measured for 140 seconds. This is followed by second add; 10 μL (5×) of an EC20 concentration of ACh agonist was added to the cells, and the response of the cells was measured for 125 seconds. […]

| SMILES | Emax at 30 µM [%] | EC50 [nM] |
| --- | --- | --- |
| Cc1c(C#N)nnc(N2CCc3nc(C#N)sc3C2)c1C [Compound 13, 5-(6-cyano-4,5-dimethylpyridazin-3-yl)-4,5,6,7-tetrahydrothiazolo[5,4-c]pyridine-2-carbonitrile] | 78 | 1210 |
| Cc1cc(C#N)cnc1N1CCc2nc(-c3cnn(C4CCC4)c3)sc2C1 [Compound 4, 6-(2-(1-cyclobutyl-1H-pyrazol-4-yl)-6,7-dihydrothiazolo[5,4-c]pyridin-5(4H)-yl)-5-methylnicotinonitrile] | 54 | > 10000 |
| Cc1c(C#N)nnc(N2CCc3nc(C4CC4)sc3C2)c1C [Compound 12, 6-(2-cyclopropyl-6,7-dihydrothiazolo[5,4-c]pyridin-5(4H)-yl)-4,5-dimethylpyridazine-3-carbonitrile] | 76 | 161 |
| Cc1cc2nc(=O)cc(C(F)(F)F)n2nc1N1CCc2nc(Br)sc2C1 [Compound 49, 7-(2-bromo-6,7-dihydrothiazolo[5,4-c]pyridin-5(4H)-yl)-8-methyl-4-(trifluoromethyl)-2H-pyrimido[1,2-b]pyridazin-2-one] | 76 | 386 |
| Cc1c(C#N)nnc(N2CCc3nc(Nc4ccccc4F)sc3C2)c1C [Compound 5, 6-(2-((2-fluorophenyl)amino)-6,7-dihydrothiazolo[5,4-c]pyridin-5(4H)-yl)-4,5-dimethylpyridazine-3-carbonitrile] | 43 | > 10000 |
| Cc1c(N2CCc3nc(C4(C)CC4)sc3C2)nc2n[nH]c(=O)n2c1C [Compound 68, 5,6-dimethyl-7-(2-(1-methylcyclopropyl)-6,7-dihydrothiazolo[5,4-c]pyridin-5(4H)-yl)-[1,2,4]triazolo[4,3-a]pyrimidin-3(2H)-one] | 97 | 40 |
| Cc1cc(C#N)cnc1N1CCc2nc(C3CC3)sc2C1 [Compound 16, 6-(2-cyclopropyl-6,7-dihydrothiazolo[5,4-c]pyridin-5(4H)-yl)-5-methylnicotinonitrile] | 84 | 103 |

Further lines, results first:

| Emax at 30 µM [%] | EC50 [nM] | SMILES |
| --- | --- | --- |
| 113 | 1290 | Cc1noc2ncnc(N3CCc4nc(Br)sc4C3)c12 [Compound 25, 4-(2-bromo-6,7-dihydrothiazolo[5,4-c]pyridin-5(4H)-yl)-3-methylisoxazolo[5,4-d]pyrimidine] |
| 76 | 119 | Cc1cc2nccnc2nc1N1CCc2nc(C(C)C)sc2C1 [Compound 64, 2-isopropyl-5-(7-methylpyrido[2,3-b]pyrazin-6-yl)-4,5,6,7-tetrahydrothiazolo[5,4-c]pyridine] |
| 72 | 93 | Cc1cc2nccnc2nc1N1CCc2nc(C(F)(F)F)sc2C1 [Compound 62, 5-(7-methylpyrido[2,3-b]pyrazin-6-yl)-2-(trifluoromethyl)-4,5,6,7-tetrahydrothiazolo[5,4-c]pyridine] |
| 96 | 106 | Cc1coc2ncnc(N3CCc4nc(Br)sc4C3)c12 [Compound 22, 4-(2-bromo-6,7-dihydrothiazolo[5,4-c]pyridin-5(4H)-yl)-5-methylfuro[2,3-d]pyrimidine] |
| 54 | 2780 | Cc1cc2nccnc2nc1N1CCc2nc(-c3ccnn3C)sc2C1 [Compound 59, 2-(1-methyl-1H-pyrazol-5-yl)-5-(7-methylpyrido[2,3-b]pyrazin-6-yl)-4,5,6,7-tetrahydrothiazolo[5,4-c]pyridine] |
| 85 | 94 | Cc1cc2nc(C)c(F)c(=O)n2nc1N1CCc2nc(Br)sc2C1 [Compound 40, 7-(2-bromo-6,7-dihydrothiazolo[5,4-c]pyridin-5(4H)-yl)-3-fluoro-2,8-dimethyl-4H-pyrimido[1,2-b]pyridazin-4-one] |
| 88 | 75 | Cc1cc2nc(C(F)F)cc(=O)n2nc1N1CCc2nc(Br)sc2C1 [Compound 39, 7-(2-bromo-6,7-dihydrothiazolo[5,4-c]pyridin-5(4H)-yl)-2-(difluoromethyl)-8-methyl-4H-pyrimido[1,2-b]pyridazin-4-one] |
